The values that follow come from patent US6617332B1, “Tan-1057 derivatives” (Bayer Aktiengesellschaft, priority 1998, dated 2003).

The subject of data set [1] is TAN 1057 A,B-resistant S. aureus 133. Description: MIC test with TAN 1057 A,B-resistant isolates from stepwise selection. Type of data set: cell-based. Conditions: Staphylococcus aureus. How it is done: (§1) The MIC was determined using the liquid dilution test. Overnight cultures of the test germs (S. aureus 133) in Isosensitest bouillon were diluted 1:1000 with foetal calf serum (FCS) or Isosensitest bouillon and incubated with dilutions of the test substances (successive dilutions of 1:2).
Bacteria of the strain S. aureus 133 were incubated with different concentrations of TAN 1057 A,B for 24 hours. […] This process was repeated for several days, selecting step by step bacteria having increased resistance to TAN 1057 A,B. The MIC of highly resistant S. aureus 133 bacteria was >100 μg/ml (initial MIC: <0.1 μg/ml). The bacteria from this selection series, having an MIC of <0.1, 0.8, 25, 100 and >100 μg/ml, were used for tests. It is thus possible to identify TAN 1057 A,B derivatives having antibacterial activity against TAN 1057 A,B-resistant cells.
The S. aureus 133 isolates with medium and high resistance to TAN 1057 A,B were tested in comparison to the derivatives of the invention.

For data set [2], the system named is α2-macroglobulin secretion of HepG2 cells. The experiment in a line: Functionality of HepG2 cells: secretion of α2-macroglobulin (ELISA). Type of data set: cell-based. Particulars: human, HepG2 liver cells, HepG2, 40-48 hours, highest test concentration 10 μg/ml. As for the experimental part: (§2) The vitality and functionality of human HepG2 liver cells were examined after treatment with exemplary compounds. In each case 2×10^4−1×10^5 cells were incubated in RPMI 1640 (Whittacker) with 10% heat-inactivated foetal calf serum (Gibco) at 37° C. for 40-48 hours. The incubation volume of 200 μl contained the test substances in concentrations of 10, 2 and 0.4 μg/ml.
(§3) The functionality of the HepG2 cells was examined by measuring the secretion of apo B100 and α2-macroglobulin after treatment. To this end, the protein content of the culture supernatants was determined by ELISA after incubation for 40-48 hours. Apo B100 was bound using rabbit ahLDL (1 mg/ml) and quantified using peroxidase-conjugated monoclonal antibodies (ahLDL_POD), with addition of the substrate TMB/H2O2. The optical density was measured at 450 nm.
To determine α2-macroglobulin, the ELISA system from Biodesign (Art.No. H 45205M) was used. Quantification was likewise carried out using the substrate TMB/H2O2, and measuring the optical density at 450 nm.
(In general: An ELISA detects its analyte on a solid surface through an enzyme-linked reagent.)

Data set [3] relates to S. aureus 133. Description: Determination of the minimum inhibitory concentration (MIC), liquid dilution test. In kind it is cell-based. Particulars: Staphylococcus aureus. As for the experimental part:
as §1
The cultures were incubated at 37° C. for 18-24 hours. In each case the lowest concentration of substance at which no visible bacterial growth took place, was defined as MIC.

Data set [4] relates to S. aureus 133. Description: Test of antibacterial activity in vivo (infected mice, survival). Particulars: mice infected i.p. with 1×10^6 S. aureus 133 in 5% mucine; intravenous administration 30 minutes after infection. How it is done: Mice were infected with 1×10^6 bacteria of the strain S. aureus 133 in 5% mucine (i.p.) and treated by intravenous administration of the test substances 30 minutes after the infection. Without treatment, all infected animals died. The therapeutic doses for TAN 1057 A,B and the compound of Example 4 at which all infected animals survived (=ED100) was 1 mg/kg for both substances.

For the next data set, the system named is J774.A1 cells. Description: Neutral Red vitality test using J774.A1 cells. In kind it is cell-based, murine. Particulars: compatibility tests with eukaryotic cells: hepatocytes (HepG2) and murine macrophage cells (J774.A1). As for the experimental part: (§4) Compatibility tests of the exemplary compounds were carried out using cultures of eukaryotic cells. Hepatocytes (HepG2) and murine macrophage cells (J774.A1) were used as indicator for organ-specific toxicity. The murine macrophage cell line used is a particularly sensitive indicator for toxic effects.
(§5) In each case 1.2×10^4 cells were incubated at 37° C. for 24 hours. Test substances were added at different concentrations, and the cells were incubated for another 72 hours. The cells were then treated with 50 μl of Neutral Red solution (Sigma, No. N 2889) for 2 hours, washed with PBS medium and denaturated using an ethanol/glacial acetic acid mixture.
(§6) The cultures were measured in an Elisa reader at 540 nm and 630 nm. The IC50 values were extrapolated and indicate at which concentration the vitality of the cells, measured by the uptake of Neutral Red, is reduced to 50%, compared to untreated control cells.

Data set [5] is described as follows: Neutral Red vitality test using J774.A1 cells. Type of data set: cell-based, murine. Particulars: mouse; J774.A1 murine macrophage cells, 72 hours with substance; vitality reduced to 50% of untreated control. As for the experimental part:
as §4, §5, §6

Data set [6] is described as follows: Acute toxicity in mice (LD50). Conditions: mouse, in vivo, ip, intraperitoneal administration, dose at which 50% of treated mice survive. How it is done:
The acute toxicity of the substances was determined by determining the dose at which 50% of the treated mice survive (=LD50). Following intraperitoneal administration of the test substances, the LD50 for TAN 1057 A,B was 100 mg/kg. The LD50 for the compound of Example 4 was >400 mg/kg.

Data set [7] concerns apo B100 secretion of HepG2 cells. The experiment in a line: Functionality of HepG2 cells: secretion of apo B100 (ELISA). In kind it is cell-based. Particulars: human, HepG2 liver cells, HepG2, 40-48 hours, highest test concentration 10 μg/ml. As for the experimental part:
as §2, §3

Data set [8] is described as follows: Vitality of HepG2 cells (Alamar Blue fluorescence). Type of data set: cell-based. Conditions: human, HepG2 liver cells, HepG2, 40-48 hours, highest test concentration 10 μg/ml. How it is done:
as §2
The vitality was examined after addition of 20 μl Alamar Blue (Biosource, Art. No. DAL 1100) by measuring the fluorescence (excitation: 544 nm, emission: 590 nm).
Background: Alamar Blue is a resazurin reagent that responds to reducing activity.

[9] abbreviates: read-out: MIC, isolate with medium resistance to TAN 1057 A,B.
The mark [10] stands for this setting: S. aureus 133, overnight culture diluted 1:1000 with foetal calf serum, 37° C., 18-24 hours, lowest concentration without visible growth, read-out: MIC in FCS (S.aureus; μg/ml).

A word on the MIC: it is the lowest concentration found to suppress growth. By IC50 is commonly meant the midpoint of a concentration-inhibition curve. Higher therefore signals a need for much substance. As a reminder, the LD50 is the dose at which mortality reaches 50%. Higher therefore signals lower toxicity. A word on the melting point: it is the temperature of the solid-liquid transition.

Molecules are shown by their SMILES. In brackets after ≈: the same amount, converted by molar mass. Counter-ions that a name gives are not always drawn. Like-named read-outs stand apart in the source and are kept apart here.

As to `CN(C(=O)C[C@@H](N)CNC(=N)N)C1CNC(NC(N)=O)=NC1=O` (some centres unmarked) [TAN 1057 A,B, reference compound], the MIC is greater than 100 µg/mL in [1] (read-out: MIC of highly resistant S. aureus 133 bacteria); 0.8 µg/mL (≈ 2.44 µM) in data set [1] (setting [9]); 0.1 µg/mL (≈ 0.305 µM) in the data set with S. aureus 133 [3] (setting [10]); less than 0.1 µg/mL in the data set on S. aureus 133 [3] (S. aureus 133 before selection with TAN 1057 A,B, read-out: initial MIC). This compound gave an IC50 in data set [2] of 7 µg/mL (≈ 21.4 µM). Also, the “ED100 (therapeutic dose at which all infected animals survived)” value in the data set on S. aureus 133 [4] was found to be 1 mg/kg. Besides, in the data set on J774.A1 cells, the “toxicity (in words)” value was “pronounced toxicity in the liver and cells of the immune system”. This compound registered an IC50 at 72 h in [5] of 0.25 µg/mL (≈ 0.764 µM). The compound further came in with a median lethal dose (LD50) in [6] of 100 mg/kg.
Regarding `CCN(C(=O)C[C@@H](N)CCCNC(=N)N)C1CNC(NC(N)=O)=NC1=O` (stereo partly drawn) (as salt: hydrochloride) [Example 15, (3′S,5R,S)-5-[N-Ethyl-N-(3′-amino-6′-guanidinohexanoyl)amino]-5,6-dihydro-2-ureido-4(1H)-pyrimidone Dihydrochloride], the melting point was 170 to 172 °C.
Take `CN(C(=O)CC(N)c1cccc(NC(=N)N)c1)C1CNC(NC(N)=O)=NC1=O` (stereo not drawn) [Example 2, (3′RS,5RS)-5-{N-Methyl-N-[3′-amino-3′-(3-guanidylphenyl)propionyl]amino}-5,6-dihydro-2-ureido-4(1H)-pyrimidone Dihydrochloride]: the IC50 in data set [2], in data set [7] and in data set [8] was greater than 10 µg/mL in each case. Also, in the data set with S. aureus 133 [3] (setting [10]), the MIC amounted to 50 µg/mL. Also, the IC50 at 72 h in data set [5] was 6 µg/mL.
On to `CNC(=N)NCCC[C@H](N)CC(=O)N(C)C1CNC(NC(N)=O)=NC1=O` (stereo partly drawn) [Example 6, (3′S,5R,S)-5-{N-Methyl-N-[3′-amino-6′-(N′-methylguanidino)hexanoyl]amino}-5,6-dihydro-2-ureido-4(1H)-pyrinidone Dihydrochloride], for which the MIC in the data set on S. aureus 133 [3] (setting [10]) is 0.8 µg/mL. This compound returned an IC50 at 72 h in data set [5] of 5.5 µg/mL.
Consider `CN(C(=O)C[C@@H](N)CCCN)C1CNC(NC(N)=O)=NC1=O` (stereo partly drawn) [Example 4, (3′S,5R,S)-5-[N-Methyl-N-(3′,6′-diaminohexanoyl)amino]-5,6-dihydro-2-ureido-4(1H)-pyrimidone Dihydrochloride], for which the MIC amounted to 0.2 µg/mL in data set [1] (setting [9]) and 0.4 µg/mL in the data set with S. aureus 133 [3] (setting [10]). Moreover, the “ED100 (therapeutic dose at which all infected animals survived)” value in the data set with S. aureus 133 [4] is listed as 1 mg/kg. Further, the 50% inhibitory concentration (IC50) at 72 h in data set [5] is 25 µg/mL. The same compound showed an LD50 in data set [6] greater than 400 mg/kg.
For the compound `CN(C(=O)C[C@@H](N)CCCCNC(=N)N)C1CNC(NC(N)=O)=NC1=O` (stereo partly drawn) [Example 1, (3′S,5R,S)-5-[N-Methyl-N-(3′-amino-7′-guanidinoheptanoyl)amino]-5,6-dihydro-2-ureido-4(1H)-pyrimidone Dihydrochloride], the IC50 in [2], in [7] and in data set [8] was greater than 10 µg/mL in each case. Moreover, the MIC with S. aureus 133 [3] (setting [10]) came out at 0.2 µg/mL. The IC50 at 72 h in [5] is 3 µg/mL.
Regarding `CN(C(=O)C[C@@H](N)CCN)C1CNC(NC(N)=O)=NC1=O` (stereo partly drawn) [Example 8, (3′S,5R,S)-5-[N-Methyl-N-(3′,5′-diaminopentanoyl)amino]-5,6-dihydro-2-ureido-4(1H)-pyrimidone Dihydrochloride], in the data set on S. aureus 133 [3] (setting [10]), the MIC was 1.6 µg/mL. The compound also gave an IC50 at 72 h in data set [5] of 1.8 µg/mL.
